Results published in article PMC12346198 (Cancers, 2025).
pIC50: −log10 of the molar value. Counter-ions that a name gives are not always drawn. Like-named read-outs stand apart in the source and are kept apart here.

Experiments:
[1] = cited from earlier work
[2] = test system: SNU423; assay: CCK-8 cytotoxicity assay, SNU423; type: cell-based; details: Homo sapiens, SNU-423, 72 h treatment
Protocol: (§1) The cytotoxicity of compounds was determined by the CCK-8 assay (Cell Counting Kit-8, CK04, Dojindo Molecular Technologies, Kumamoto, Japan). Cell lines were plated at 10,000 cells/well in 96-well plates and incubated overnight to allow for adherence (5% CO2, 37 °C). […] Cells were placed back in the incubator for 72 h treatment. CCK-8 reagent was added, and plates were further incubated 1–4 h as directed by the supplier’s instructions. Optical density was measured using a Biotek Synergy H1 plate reader at 450 nm. Primary hepatocytes were plated at 30,000 cells or 50,000 cells/well and maintained according to the technical information bulletin provided by the supplier. Upon treatment, maintenance media were supplemented with 10% FBS and fresh test compound for all subsequent media changes, as directed.

[3] = test system: SNU475; assay: CCK-8 cytotoxicity assay, SNU475; type: cell-based, human; details: 72 h treatment
Protocol: as §1

[4] = test system: HepG2; assay: CCK-8 cytotoxicity assay, HepG2; type: cell-based, human; details: Homo sapiens, HepG2, 72 h, 72 h treatment
Protocol: as §1

[5] = test system: THLE-2; assay: CCK-8 cytotoxicity assay, THLE-2; type: cell-based; details: Homo sapiens, 72 h treatment
Protocol: as §1

[6] = test system: Primary Male Hepatocytes; assay: CCK-8 cytotoxicity assay, primary male hepatocytes; type: cell-based; details: Hepatocyte, 72 h, 72 h treatment
Protocol: as §1

[7] = Single-dose IV and PO pharmacokinetics in mice; type: in vivo, male C57BL/6 mice; details: for Oral bioavailability compared to parent compound: Figure S5D; for Expected plasma levels for up to 8 h post-dose: linearly scaled from PK data, BID 75 mg/kg niclosamide, 105.7 mg/kg valine–niclosamide, 87.3 mg/kg valine–compound #7, 62.9 mg/kg compound #7; for AUC: analyte = dosed compound; for Cmax: read-out: Cmax, Geo Mean; for Tmax: read-out: Tmax, Geo Mean; for clearance: single IV dose, 2 mg/kg or molar equivalent, read-out: Systemic clearance following an IV dose (converted)
Protocol: The in-life study and quantitative analysis of plasma samples using LC/MS were performed at Charles River Laboratories, Inc. (Wilmington, MA, USA).

[8] = Pharmacokinetic modeling of valine pro-drug conversion to parent; type: in vivo, mice; details: for k el: C57BL/6, mouse, plasma, model estimate, read-out: Kel, elimination rate constant of valine conjugate (converted); for Kmet, rate constant of conversion to parent compound: Kmet = Fm × Kel; for Fraction of pro-drug converted to parent (Fm): two-compartment model estimate
Description: A total of 36 mice with available PK data were included for non-linear mixed-effects analysis using NONMEM (version 7.5.0, ICON Development Solutions, Ellicott City, MD, USA), implementing the first-order conditional estimation with interaction (FOCE-I). R (version 4.2.0, R Foundation for Statistical Computing, Vienna, AUT, http://www.r-project.org) was used for visual diagnostics. […] The analyte (valine conjugate and parent compound) plasma concentration–time data were confirmed to have a biphasic distribution and elimination and were therefore fit separately to a linear two-compartment model with a depot for oral administration. Each model was parametrized in terms of clearance (CL), the volume of distribution of the central compartment (V1), intercompartmental clearance (Q), and the volume of the peripheral compartment (V3). Interindividual variability (IIV) for each parameter was assumed to be log-normally distributed, and residual variability (RUV) was described with a proportional error model. The PK parameter estimates from these independent models (parent compound or valine conjugate) were used as initial estimates for a combined model describing the conversion and disposition of the valine conjugate to the parent drug and associated metabolites. The model estimated the fraction of pro-drug converted to parent drug (Fm), which was used to calculate the first-order rate constant of metabolite formation (Kmet) = Fm × Kel. This rate constant was used to calculate the half-life of the conversion process and the amount of metabolite formed at complete conversion. The rate of metabolite formation was then calculated as the ratio of the amount of metabolite formed to the time required for complete conversion (~5 half-lives), as detailed in Figures S8–S11.

[9] = test system: SNU475 cells; assay: Hollow fiber assay (HFA) model of AR-SV HCC; type: in vivo; details: for Cell viability within hollow fibers (MTT assay): nude mice
Description: The hollow fiber procedures were based upon those developed by Hollingshead et al. with technical consultation kindly provided by Drs. Joanna Burdette and Dan Lantvit (University of Illinois Chicago, Chicago, IL, USA). […] In order to utilize a PO dosing approach with the HFA, we extended the traditional HFA timeline to establish angiogenesis, as noted in the literature. […] Hollow fibers (KrosFlo Implant Membranes, M138615, Repligen, Waltham, MA, USA) were filled with 3 × 10^6 SNU475 cells/mL per length and heat-sealed into 2 cm lengths on Day −1. On Day 0, three fibers were implanted into 20-week-old male outbred homozygous athymic nude mice (Foxn1^nu/Foxn1^nu, The Jackson Laboratory, Bar Harbor, ME, USA) subcutaneously parallel to the spine. Following a 14-day waiting period to allow for angiogenesis around the fibers, treatment was initiated. […] On Day 21, mice were euthanized and hollow fibers were explanted. The MTT assay was performed according to the KrosFlo Implant Membrane protocol utilizing Thiazolyl Blue Tetrazolium Bromide (M2128, MilliporeSigma, Burlington, MA, USA).

[10] = Two-week tolerability study; details: daily PO for 14 days
Protocol: Mice were group-housed under conditions of a constant photoperiod (12 h light/12 h dark), temperature, and humidity with ad libitum access to water and standard pelleted chow. […] Control mice were treated with the vehicle (DMSO–Cremophor EL–water, 3:15:82 by volume). Treatments were administered PO by gavage once daily for 14 days. Mouse weights were measured every 2 days. At the study endpoint, mice were euthanized approximately 2–4 h after the last dose. Blood was collected by cardiac puncture immediately after CO2 euthanasia. At necropsy, carcasses were examined for grossly visible lesions, and organ weights were measured (liver, kidneys, spleen, urogenital tract, testes, heart, lungs, brain). Whole blood and serum were submitted to the Comparative Pathology and Digital Imaging Shared Resource at the Ohio State Comprehensive Cancer Center (OSUCCC, Columbus, OH, USA) for the determination of complete blood counts and serum chemistry.

[11] = IV, 2 mg/kg (valine conjugates 2 mg/kg EQV)
[12] = IV, 2 mg/kg (valine conjugates 2 mg/kg EQV), non-compartmental analysis
[13] = PO, 40 mg/kg (valine conjugates 40 mg/kg EQV)
[14] = male, C57BL/6, mouse, plasma, iv, 2 mg/kg, IV, 2 mg/kg (valine conjugates 2 mg/kg EQV), non-compartmental analysis, read-out: AUCall, Geo Mean
[15] = male, C57BL/6, mouse, plasma, iv, 2 mg/kg, IV, 2 mg/kg (valine conjugates 2 mg/kg EQV)
[16] = male, C57BL/6, mouse, plasma, po, 40 mg/kg, PO, 40 mg/kg (valine conjugates 40 mg/kg EQV), non-compartmental analysis, read-out: AUCall, Geo Mean
[17] = male, C57BL/6, mouse, plasma, po, 40 mg/kg, PO, 40 mg/kg (valine conjugates 40 mg/kg EQV)
[18] = male, C57BL/6, mouse, plasma, po, 40 mg/kg, single PO dose, 40 mg/kg or molar equivalent, read-out: AUCall following an oral dose
[19] = male, C57BL/6, mouse, plasma, IV, 2 mg/kg (valine conjugates 2 mg/kg EQV)
[20] = male, C57BL/6, mouse, plasma, PO, 40 mg/kg (valine conjugates 40 mg/kg EQV)
[21] = BID PO one week, niclosamide 75, valine–niclosamide 106.1, valine–compound #7 87.3, compound #7 62.9 mg/kg

Compound: O=C(Nc1ccc([N+](=O)[O-])cc1Cl)c1cc(Cl)ccc1O [NEN, niclosamide ethanolamine salt]
- Plasma niclosamide concentration 4 h after oral administration ([1]; 40 mg/kg dose PO): roughly 0.72 µM
- Improvement of plasma niclosamide concentration over niclosamide ([1]; 4 h after oral administration): more than seven-fold

Compound: CNC(=O)c1cc(Oc2ccc(NC(=O)Nc3ccc(Cl)c(C(F)(F)F)c3)c(F)c2)ccn1 [Regorafenib, regorafenib]
- pIC50 [2]: 5.26
- pIC50 [3]: 5.79
- pIC50 ([3]; Homo sapiens, SNU-475, 72 h): 5.80
- pIC50 [4]: 4.92
- pIC50 [5]: < 4.52
- pIC50 [6]: < 4.52

Compound: CC(C)[C@H](N)C(=O)Oc1ccc(Cl)cc1C(=O)Nc1ccc([N+](=O)[O-])cc1Cl [valine–niclosamide]
- Oral bioavailability compared to parent compound [7]: significantly higher oral bioavailability
- HL_Lambda_z, Geo Mean [7, 11]: 1.54 h
- IV: Clobs, Geo Mean [7, 12]: 0.02 L/h
- Fold improvement in Cmax over orally administered niclosamide ([7]; PO): 6.8 fold
- Fold increase in systemic exposure over orally administered niclosamide ([7]; PO): 14.9 fold
- HL_Lambda_z, Geo Mean [7, 13]: 4.11 h
- PO: Cl_Fobs, Geo Mean [7, 13]: 0.05 L/h
- Fold increase in plasma levels at 4 h over niclosamide ([7]; PO, molar equivalent of 40 mg/kg): more than 16 fold
- Expected plasma levels for up to 8 h post-dose [7]: ~3.5 µM
- AUC [7, 14]: 7.52 µM·h
- Cmax [7, 15]: 11.2 µM
- AUC [7, 16]: 48.6 µM·h
- Cmax [7, 17]: 11.2 µM
- AUC [7, 18]: 48.6 µM·h
- concentration at 4 h ([7]; male, C57BL/6, mouse, plasma, po, 40 mg/kg, read-out: Plasma level at 4 h after a molar equivalent oral dose): 3.59 µM
- Tmax [7, 19]: 4.8 min
- Tmax [7, 20]: 40.2 min
- clearance ([7]; male, C57BL/6, mouse, plasma): 0.333 mL/min
- k el [8]: 0.000789 s⁻¹
- Kmet, rate constant of conversion to parent compound [8]: 0.64 h⁻¹
- Fraction of pro-drug converted to parent (Fm) [8]: 23%
- Cell viability within hollow fibers (MTT assay) [9, 21]: no differences in cell viability
- Impact on body weight ([10]; 14.1, 56.4, 141.0 mg/kg): no significant impact
- Impact on liver enzyme levels ([10]; ALT, AST, albumin): no significant impact
- Spleen weights as a percentage of body weight ([10]; versus vehicle): increase at the highest dose level

Compound: CNC(=O)c1cc(Oc2ccc(NC(=O)Nc3ccc(Cl)c(C(F)(F)F)c3)cc2)ccn1 [Sorafenib, sorafenib]
- pIC50 [2]: 5.21
- pIC50 [3]: 5.38
- pIC50 ([3]; Homo sapiens, SNU-475, 72 h): 5.40
- pIC50 [4]: 4.97
- pIC50 [5]: < 4.52
- pIC50 [6]: 5.29

Compound: CC(=O)O[C@H]1C(=O)[C@@]2(C)[C@H]([C@H](OC(=O)c3ccccc3)[C@]3(O)C[C@H](OC(=O)[C@H](O)[C@@H](NC(=O)c4ccccc4)c4ccccc4)C(C)=C1C3(C)C)[C@]1(OC(C)=O)CO[C@@H]1C[C@@H]2O [PTX, Paclitaxel, reference compound]
- Cell viability within hollow fibers (MTT assay) ([9]; 25 mg/kg IP every other day for one week): significant decrease in cell viability

Compound: CC(C)[C@H](N)C(=O)Oc1ccc(Cl)cc1C(=O)Nc1ccc(C(F)(F)F)cc1Cl [valine–compound #7]
- Oral bioavailability compared to parent compound [7]: this was not observed
- HL_Lambda_z, Geo Mean [7, 11]: 4.20 h
- IV: Clobs, Geo Mean [7, 12]: 0.01 L/h
- HL_Lambda_z, Geo Mean [7, 13]: 6.46 h
- PO: Cl_Fobs, Geo Mean [7, 13]: 0.05 L/h
- Expected plasma levels for up to 8 h post-dose [7]: 3.7 µM
- AUC [7, 14]: 13.5 µM·h
- Cmax [7, 15]: 10.1 µM
- AUC [7, 16]: 62.1 µM·h
- Cmax [7, 17]: 7.71 µM
- AUC [7, 18]: 62.1 µM·h
- Tmax [7, 19]: 4.8 min
- Tmax [7, 20]: 75.6 min
- clearance ([7]; male, C57BL/6, mouse, plasma): 0.167 mL/min
- k el [8]: 0.00147 s⁻¹
- Kmet, rate constant of conversion to parent compound [8]: 1.32 h⁻¹
- Fraction of pro-drug converted to parent (Fm) [8]: 25%
- Toxicity in HFA study mice ([9]; 87.3 mg/kg BID PO, two mice excluded): apparent toxicity
- Cell viability within hollow fibers (MTT assay) [9, 21]: no differences in cell viability

Compound: COc1cc2nccc(Oc3ccc(NC(=O)NC4CC4)c(Cl)c3)c2cc1C(N)=O [Lenvatinib, lenvatinib]
- pIC50 [2]: < 4.52
- pIC50 ([3]; Homo sapiens, SNU-475, 72 h): 4.89
- pIC50 [4]: < 4.52
- pIC50 [5]: 4.60
- pIC50 [6]: < 4.52

Compound: CNC(=O)c1ccc(N2C(=S)N(c3ccc(C#N)c(C(F)(F)F)c3)C(=O)C2(C)C)cc1F [Enzalutamide, enzalutamide]
- pIC50 [6]: < 4.52
